Source: patent US9518018B2, “3-alkoxy, thioalkyl and amino-4-amino-6-(substituted)picolinates and their use as herbicides” (Dow AgroSciences LLC, priority 2011, dated 2016)

How the values were obtained:
[1] = tested on: ABUTH: velvetleaf (Abutilon theophrasti); experiment: Post-Emergent Test I herbicidal activity; format: in vivo; details: Abutilon theophrasti, post-emergence, 336 h, read-out: Visual Growth Reduction (%)-14 Days after Application ABUTH; for pest or weed control at 280 g/ha: Table 3, 280 g ai/ha; for pest or weed control at 140 g/ha: Table 3, 140 g ai/ha
In short: (§1)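 Visual injury ratings (0 = none, 100 = complete kill) taken 14 d after treatment underlie these values, with GR20, GR50 and GR80 obtained by probit analysis. Plants were treated post-emergence at the first or second true-leaf stage by overhead spray at 187 L/ha.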

[2] = tested on: CHEAL: lambsquarters (Chenopodium album); experiment: Post-Emergent Test I herbicidal activity; format: in vivo; details: Chenopodium album, post-emergence, 336 h, read-out: Visual Growth Reduction (%)-14 Days after Application CHEAL; for pest or weed control at 280 g/ha: Table 3, 280 g ai/ha; for pest or weed control at 140 g/ha: Table 3, 140 g ai/ha
In short: as §1

[3] = tested on: CYPES: yellow nutsedge (Cyperus esculentus); experiment: Post-Emergent Test I herbicidal activity; format: in vivo; details: post-emergence, 336 h, read-out: Visual Growth Reduction (%)-14 Days after Application CYPES; for pest or weed control at 280 g/ha: Table 3, 280 g ai/ha; for pest or weed control at 140 g/ha: Table 3, 140 g ai/ha
In short: as §1

[4] = tested on: ECHCG: barnyardgrass (Echinochloa crus-galli); experiment: Post-Emergent Test I herbicidal activity; format: in vivo; details: post-emergence, 336 h, read-out: Visual Growth Reduction (%)-14 Days after Application ECHCG; for pest or weed control at 280 g/ha: Table 3, 280 g ai/ha; for pest or weed control at 140 g/ha: Table 3, 140 g ai/ha
In short: (§2)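 Foliar spray, 187 L/ha, track sprayer; plants at 1st–2nd true leaf, 7–21 d old. Carrier: acetone/DMSO + aqueous acetone/IPA/crop oil/Triton X-155; high rate plus ½×–1/16× dilutions. Subirrigated; visual % injury vs untreated at 14 d.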

[5] = tested on: EPHHL: wild poinsettia (Euphorbia heterophylla); experiment: Post-Emergent Test I herbicidal activity; format: in vivo; details: post-emergence, 336 h, read-out: Visual Growth Reduction (%)-14 Days after Application EPHHL; for pest or weed control at 280 g/ha: Table 3, 280 g ai/ha; for pest or weed control at 140 g/ha: Table 3, 140 g ai/ha
In short: as §1

[6] = tested on: ORYSA: rice (Oryza sativa); experiment: Post-Emergent Test I herbicidal activity; format: in vivo; details: post-emergence, 336 h, read-out: Visual Growth Reduction (%)-14 Days after Application ORYSA; for pest or weed control at 280 g/ha: Table 3, 280 g ai/ha; for pest or weed control at 140 g/ha: Table 3, 140 g ai/ha
In short: as §2

[7] = tested on: ZEAMX: corn (Zea mays); experiment: Post-Emergent Test I herbicidal activity; format: in vivo; details: Zea mays, post-emergence, 336 h, read-out: Visual Growth Reduction (%)-14 Days after Application ZEAMX; for pest or weed control at 280 g/ha: Table 3, 280 g ai/ha; for pest or weed control at 140 g/ha: Table 3, 140 g ai/ha
In short: as §1

Row | Structure (SMILES) | pest or weed control at 280 g/ha [1] [%] | pest or weed control at 280 g/ha [2] [%] | pest or weed control at 280 g/ha [3] [%] | pest or weed control at 280 g/ha [4] [%] | pest or weed control at 280 g/ha [5] [%] | pest or weed control at 280 g/ha [6] [%] | pest or weed control at 280 g/ha [7] [%] | melting point [°C] | pest or weed control at 140 g/ha [1] [%] | pest or weed control at 140 g/ha [2] [%] | pest or weed control at 140 g/ha [3] [%] | pest or weed control at 140 g/ha [4] [%] | pest or weed control at 140 g/ha [5] [%] | pest or weed control at 140 g/ha [6] [%] | pest or weed control at 140 g/ha [7] [%]
1 | COc1c(Cl)ccc(-c2cc(N)c(OC(F)F)c(C(=O)O)n2)c1F [Compound 64] | 50 | 85 | 0 | 0 | 95 | 0 | 10 | 169 to 171 | – | – | – | – | – | – | –
2 | CCOC(=O)c1nc(-c2ccc(Cl)cc2F)cc(N)c1OCC(F)(F)F [Compound 67, ethyl 4-amino-6-(4-chloro-2-fluorophenyl)-3-(2,2,2-trifluoro-ethoxy)picolinate] | 25 | 50 | 0 | 0 | 35 | 0 | 0 | 123 to 125 | – | – | – | – | – | – | –
3 | CSc1c(C(=O)O)nc(-c2ccc(Cl)c(F)c2)c(F)c1N [Compound 72] | – | – | – | – | – | – | – | 168 to 170 | 80 | 100 | 90 | 0 | 100 | 30 | 60
4 | CSc1c(C(=O)O)nc(Cl)c(F)c1N [Compound 73] | – | – | – | – | – | – | – | 176 to 178 | 10 | 10 | 0 | 0 | 50 | 0 | 0
5 | COC(=O)c1nc(Cl)c(F)c(N)c1SC [Compound 74, Methyl 4-amino-6-chloro-5-fluoro-3-(methylthio)picolinate] | – | – | – | – | – | – | – | 75 to 77 | 0 | 0 | 0 | 0 | 0 | 0 | 0
6 | COC(=O)c1nc(-c2ccc(Cl)cc2)cc(N(C)C)c1N [Compound 87, Methyl 3-amino-6-(4-chlorophenyl)-4-(dimethylamino)picolinate] | – | – | – | – | – | – | – | 153 to 154 | 90 | 90 | 90 | 40 | 100 | 0 | 0
7 | CCOC(=O)c1nc(-c2ccc(Cl)c(OC)c2F)cc(N)c1SC [Compound 88, Ethyl 4-amino-6-(4-chloro-2-fluoro-3-methoxyphenyl)-3-(methylthio)picolinate] | – | – | – | – | – | – | – | 93 to 94 | 100 | 100 | 60 | 100 | 100 | 0 | 80
8 | COC(=O)c1nc(-c2ccc(Cl)c(F)c2)c(F)c(N)c1SC [Compound 93, Methyl 4-amino-6-(4-chloro-3-fluorophenyl)-5-fluoro-3-(methylthio)picolinate] | – | – | – | – | – | – | – | 125 to 126 | 30 | 90 | 0 | 0 | 50 | 0 | 0
9 | COC(=O)c1nc(-c2ccc(Cl)c(OC)c2F)c(F)c(N)c1SC [Compound 94, Methyl 4-amino-6-(4-chloro-2-fluoro-3-methoxyphenyl)-5-fluoro-3-(methylthio)picolinate] | – | – | – | – | – | – | – | 113 to 117 | 60 | 85 | 0 | 0 | 65 | 0 | 0
